Measurements published in patent US8263773B2, “Thieno [2,3-b] pyridine compounds with mGluR activity” (Richter Gedeon Nyrt., priority 2008, dated 2012).

What was measured:
[1] = biological target: T1, rat mGluR5 (Rattus norvegicus, UniProt P31424); experiment: rat mGluR5 receptor binding ([3H]-M-MPEP, rat cerebro-cortical membranes); conditions: for Ki: rat cerebro-cortical membranes, [3H]-M-MPEP 2 nM; for binding affinity to rat mGlu5 receptors: statement in words
T1 construct: Rat cerebro-cortical membrane preparation was used; from tissue; host or cells: rat cerebral cortex membranes
Procedure: (§1) MGluR5 Receptor Binding Tests
(§2) MGluR5 receptor binding was determined according to Gasparini et al. (Bioorg. Med. Chem. Lett. 2000, 12:407-409) with modifications. Rat cerebro-cortical membrane preparation was used to determine the binding characteristics of reference compounds and novel compounds to the rat mGluR5. The A18 cell line expressing hmGluR5a (purchased from Euroscreen) was used to determine binding characteristics of the chemical compounds to the human mGluR5a receptor. [3H]-M-MPEP (2 nM) was used as a radioligand. The nonspecific binding was determined in the presence of 10 μM M-MPEP.

[2] = biological target: T2, human mGluR5a receptor (Homo sapiens, UniProt P41594); experiment: human mGluR5a receptor binding ([3H]-M-MPEP, A18 cell line expressing hmGluR5a); conditions: for Ki: A18 cell line expressing hmGluR5a, [3H]-M-MPEP 2 nM; for binding affinity to human mGlu5 receptors: statement in words
T2 construct: host or cells: A18 cell line
Procedure: as §1, §2

[3] = test system: male Wistar rats; experiment: Anxiolytic activity in the punished drinking test (Vogel); type: in vivo, rat; conditions: for Punished drinking, MED: oral, 60 min before test, MED = dose increasing accepted shocks above 35, male Wistar rats; for anxiolytic activity after oral administration: statement in words
Source text: Measurement of Anxiolytic Activity in the Punished Drinking Test
The method described by Vogel et al. (Psychopharmacology (Berl.) 1971, 21:1-7) was used with modifications. On the day preceding the test day male Wistar rats (180-220 g) were placed into the test chambers which were equipped with a metal water spout mounted on the wall of the chamber and a metal grid floor for delivering electric shocks. During a 5-min adaptation period the animals had free access to the drinking spout. Following the adaptation session rats were deprived of drinking water for 24 hours prior to the test. On the day of the measurement, the animals were orally treated with the test compounds and 60 minutes later were placed into the test chambers where they had access to the drinking water. In the test session drinking was punished by delivering electric shocks (1 mA, 1 sec) through the drinking spout following every 10 licks during a 270 second punishment period. Number of licks and shocks delivered were recorded and stored in a computer. Anxiolytic activity is reflected by the increased number of accepted shocks. Minimum effective doses (MED, defined as the dose which increased the number of accepted shocks above 35) were determined and used to characterize the anxiolytic potency of the tested compounds.

T1 sequence (P31424 21-1203): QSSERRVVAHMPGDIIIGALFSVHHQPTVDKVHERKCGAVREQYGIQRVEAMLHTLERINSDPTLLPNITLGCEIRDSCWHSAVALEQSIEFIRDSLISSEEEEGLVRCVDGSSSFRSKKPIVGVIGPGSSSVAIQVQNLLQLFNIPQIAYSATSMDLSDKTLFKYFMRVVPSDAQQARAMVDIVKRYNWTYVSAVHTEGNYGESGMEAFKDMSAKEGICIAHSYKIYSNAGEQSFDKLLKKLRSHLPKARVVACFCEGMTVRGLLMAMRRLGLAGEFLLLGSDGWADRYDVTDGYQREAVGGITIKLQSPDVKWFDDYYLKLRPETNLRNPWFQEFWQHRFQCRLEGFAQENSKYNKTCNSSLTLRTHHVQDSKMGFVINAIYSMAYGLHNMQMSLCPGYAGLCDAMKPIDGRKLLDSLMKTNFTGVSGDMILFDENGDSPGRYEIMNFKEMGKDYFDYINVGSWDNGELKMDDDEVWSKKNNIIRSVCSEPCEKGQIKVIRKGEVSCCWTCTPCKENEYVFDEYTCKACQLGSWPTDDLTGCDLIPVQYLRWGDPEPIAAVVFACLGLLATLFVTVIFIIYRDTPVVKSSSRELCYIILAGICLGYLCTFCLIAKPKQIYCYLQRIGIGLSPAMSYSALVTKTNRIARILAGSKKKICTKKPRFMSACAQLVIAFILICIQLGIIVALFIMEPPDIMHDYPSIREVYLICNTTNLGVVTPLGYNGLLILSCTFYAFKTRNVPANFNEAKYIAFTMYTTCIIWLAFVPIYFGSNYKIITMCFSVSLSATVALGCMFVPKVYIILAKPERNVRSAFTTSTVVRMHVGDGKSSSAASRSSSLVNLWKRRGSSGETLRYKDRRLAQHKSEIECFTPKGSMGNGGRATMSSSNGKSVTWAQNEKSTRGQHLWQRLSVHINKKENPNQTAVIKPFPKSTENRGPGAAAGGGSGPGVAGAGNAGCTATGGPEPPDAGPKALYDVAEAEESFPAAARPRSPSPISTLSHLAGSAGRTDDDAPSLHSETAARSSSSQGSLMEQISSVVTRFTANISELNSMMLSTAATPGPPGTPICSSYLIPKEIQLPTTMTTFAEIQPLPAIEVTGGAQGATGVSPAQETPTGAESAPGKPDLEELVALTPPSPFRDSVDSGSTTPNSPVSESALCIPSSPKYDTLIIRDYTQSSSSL
T2 sequence (P41594 21-1180 isoform P41594-2 limits assumed): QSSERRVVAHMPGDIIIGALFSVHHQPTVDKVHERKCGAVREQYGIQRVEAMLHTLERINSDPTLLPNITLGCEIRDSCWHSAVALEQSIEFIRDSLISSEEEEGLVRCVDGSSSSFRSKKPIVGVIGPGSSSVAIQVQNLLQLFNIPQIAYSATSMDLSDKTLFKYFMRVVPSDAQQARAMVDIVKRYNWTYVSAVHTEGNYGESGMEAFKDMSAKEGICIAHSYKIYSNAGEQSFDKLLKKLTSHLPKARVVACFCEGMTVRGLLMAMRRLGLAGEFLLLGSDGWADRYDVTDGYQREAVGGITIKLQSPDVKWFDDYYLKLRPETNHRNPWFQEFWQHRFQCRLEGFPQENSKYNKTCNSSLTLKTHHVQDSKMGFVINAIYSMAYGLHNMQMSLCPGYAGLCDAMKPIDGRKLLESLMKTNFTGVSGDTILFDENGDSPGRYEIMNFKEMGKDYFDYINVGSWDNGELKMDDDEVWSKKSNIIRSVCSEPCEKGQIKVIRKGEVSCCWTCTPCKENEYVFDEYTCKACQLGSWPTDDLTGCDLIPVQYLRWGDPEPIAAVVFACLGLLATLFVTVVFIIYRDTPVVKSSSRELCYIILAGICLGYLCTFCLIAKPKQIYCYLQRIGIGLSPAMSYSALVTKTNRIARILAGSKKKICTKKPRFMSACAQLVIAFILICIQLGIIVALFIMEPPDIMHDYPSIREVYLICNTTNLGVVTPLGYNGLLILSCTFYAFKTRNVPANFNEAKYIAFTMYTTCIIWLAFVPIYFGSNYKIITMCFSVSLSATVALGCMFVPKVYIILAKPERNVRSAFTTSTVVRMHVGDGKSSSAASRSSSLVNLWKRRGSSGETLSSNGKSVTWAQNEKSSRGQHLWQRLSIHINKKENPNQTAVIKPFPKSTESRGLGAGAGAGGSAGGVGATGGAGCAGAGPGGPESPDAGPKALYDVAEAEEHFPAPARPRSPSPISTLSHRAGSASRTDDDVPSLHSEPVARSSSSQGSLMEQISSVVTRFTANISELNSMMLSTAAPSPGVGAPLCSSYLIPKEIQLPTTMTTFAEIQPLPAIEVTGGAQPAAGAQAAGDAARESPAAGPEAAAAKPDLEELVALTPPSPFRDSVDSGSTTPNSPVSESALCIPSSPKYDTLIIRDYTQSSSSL

| Compound | Ki [1] | binding affinity to rat mGlu5 receptors [1] | Ki [2] | binding affinity to human mGlu5 receptors [2] | Punished drinking, MED [3] | anxiolytic activity after oral administration [3] |
| --- | --- | --- | --- | --- | --- | --- |
| N#Cc1cc(F)cc(S(=O)(=O)c2sc3ncc(N)cc3c2-c2cccc(Cl)c2)c1 [Compound 2, 5-Amino-2-(3-cyano-5-fluoro-benzenesulfonyl)-3-(3-chlorophenyl)-thieno[2,3-b]-pyridine] | 7.2 nM | high affinity | 8.7 nM | high affinity | 5 mg/kg | remarkable anxiolytic activity |
| N#Cc1cc(F)cc(S(=O)(=O)c2sc3ncc(N)cc3c2-c2cccc(F)c2)c1 [Compound 1, 5-Amino-2-(3-cyano-5-fluoro-benzenesulfonyl)-3-(3-fluorophenyl)-thieno[2,3-b]-pyridine] | 1.9 nM | high affinity | 3.2 nM | high affinity | 3 mg/kg | remarkable anxiolytic activity |
